Measured values reported in PubChem BioAssay (NCI).
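Growth conditions: 96-well plates. Treatment: test compound, 48 hours, 5 concentrations. Analysis: linear interpolation between bracketing concentrations; unreached endpoints set to highest concentration. TGI: total growth inhibition.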

Columns and labels:
Test in all cases: NCI tumour cell line growth inhibition, 48 h
XF 498 CNS = tested on: XF 498 CNS
LXFL 529 NSCLC = tested on: LXFL 529 NSCLC
RXF-631 renal = tested on: RXF-631 renal
DMS 273 small cell lung = tested on: DMS 273 small cell lung
DLD-1 colon = tested on: DLD-1 colon
P388 leukemia = tested on: P388 leukemia
P388/ADR leukemia = tested on: P388/ADR leukemia
DMS 114 small cell lung = tested on: DMS 114 small cell lung
HOP-18 NSCLC = tested on: HOP-18 NSCLC
SN12K1 renal = tested on: SN12K1 renal

Measured: TGI

O=C(N/C(=C\c1ccccc1[N+](=O)[O-])c1nc2ccccc2[nH]1)c1ccccc1
> 100 µM: XF 498 CNS | LXFL 529 NSCLC | RXF-631 renal | DMS 273 small cell lung | DLD-1 colon

Nc1ccc2c(c1)C1=NNC(=O)CC1C2 (stereo not drawn)
not listed: LXFL 529 NSCLC | RXF-631 renal
> 100 µM: all other assays above

CC1SC(c2ccccc2)N(Nc2c3ccccc3nc3ccccc23)C1=O (stereo not drawn)
> 100 µM: XF 498 CNS | LXFL 529 NSCLC | DMS 273 small cell lung | DMS 114 small cell lung | DLD-1 colon
